In paper PMC7041627, “Cucurbitacin D Overcomes Gefitinib Resistance by Blocking EGF Binding to EGFR and Inducing Cell Death in NSCLCs” (Frontiers in Oncology, 2020):

Experiments:
Test in all cases: solid-phase competition binding assay with biotinylated EGF on coated receptor ECD/Fc
ErbB3 = target: T1, ErbB3 (Homo sapiens, UniProt P21860)
T1 construct: ErbB3 ECD/Fc chimera; with EGF (biotinylated)

EGFR = target: T2, EGFR (Homo sapiens, UniProt P00533)
T2 construct: human-EGFR ECD/Fc chimera; with EGF (biotinylated)

ErbB2 = target: T3, ErbB2 (Homo sapiens, UniProt P04626)
T3 construct: ErbB2 ECD/Fc chimera; with EGF (biotinylated)
T3 sequence (P04626 23-652): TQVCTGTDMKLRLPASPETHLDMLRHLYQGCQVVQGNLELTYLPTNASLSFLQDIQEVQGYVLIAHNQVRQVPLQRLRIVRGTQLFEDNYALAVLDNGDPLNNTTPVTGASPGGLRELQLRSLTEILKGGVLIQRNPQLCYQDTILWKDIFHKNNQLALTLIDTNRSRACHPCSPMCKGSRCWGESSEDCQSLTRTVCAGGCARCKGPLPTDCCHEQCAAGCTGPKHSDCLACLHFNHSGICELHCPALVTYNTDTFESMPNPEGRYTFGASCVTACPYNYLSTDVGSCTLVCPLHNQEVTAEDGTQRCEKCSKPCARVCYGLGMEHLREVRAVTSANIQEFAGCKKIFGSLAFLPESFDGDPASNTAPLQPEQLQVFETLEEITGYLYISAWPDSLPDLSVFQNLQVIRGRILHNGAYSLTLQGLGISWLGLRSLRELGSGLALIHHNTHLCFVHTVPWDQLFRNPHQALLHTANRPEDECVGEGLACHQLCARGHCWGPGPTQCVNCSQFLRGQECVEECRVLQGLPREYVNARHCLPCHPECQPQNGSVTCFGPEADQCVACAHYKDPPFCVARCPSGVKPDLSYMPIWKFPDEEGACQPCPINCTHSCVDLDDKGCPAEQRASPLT
T3 sequence (P01133 971-1023, further chain): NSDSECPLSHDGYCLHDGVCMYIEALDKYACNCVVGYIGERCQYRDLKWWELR

T1 sequence (P21860 20-643 limits assumed): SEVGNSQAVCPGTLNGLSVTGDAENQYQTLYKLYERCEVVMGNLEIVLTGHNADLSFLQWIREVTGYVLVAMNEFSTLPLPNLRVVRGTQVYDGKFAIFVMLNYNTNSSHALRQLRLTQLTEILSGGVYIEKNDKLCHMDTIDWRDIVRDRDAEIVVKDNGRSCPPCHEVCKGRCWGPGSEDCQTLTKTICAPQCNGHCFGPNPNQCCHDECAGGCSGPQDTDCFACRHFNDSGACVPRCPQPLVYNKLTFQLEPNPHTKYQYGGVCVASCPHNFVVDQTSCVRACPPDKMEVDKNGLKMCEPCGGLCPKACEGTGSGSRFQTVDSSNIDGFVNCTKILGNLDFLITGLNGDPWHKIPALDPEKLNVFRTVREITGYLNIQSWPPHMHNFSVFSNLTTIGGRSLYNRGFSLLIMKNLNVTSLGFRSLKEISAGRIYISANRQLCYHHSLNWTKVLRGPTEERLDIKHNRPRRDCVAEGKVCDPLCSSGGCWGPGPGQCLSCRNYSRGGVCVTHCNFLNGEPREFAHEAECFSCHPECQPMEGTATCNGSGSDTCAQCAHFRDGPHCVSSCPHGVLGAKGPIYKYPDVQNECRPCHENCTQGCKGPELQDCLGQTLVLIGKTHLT
T1 sequence (P01133 971-1023 partner): as the sequence (P01133 971-1023, further chain) above
T2 sequence (P00533 25-645 limits assumed): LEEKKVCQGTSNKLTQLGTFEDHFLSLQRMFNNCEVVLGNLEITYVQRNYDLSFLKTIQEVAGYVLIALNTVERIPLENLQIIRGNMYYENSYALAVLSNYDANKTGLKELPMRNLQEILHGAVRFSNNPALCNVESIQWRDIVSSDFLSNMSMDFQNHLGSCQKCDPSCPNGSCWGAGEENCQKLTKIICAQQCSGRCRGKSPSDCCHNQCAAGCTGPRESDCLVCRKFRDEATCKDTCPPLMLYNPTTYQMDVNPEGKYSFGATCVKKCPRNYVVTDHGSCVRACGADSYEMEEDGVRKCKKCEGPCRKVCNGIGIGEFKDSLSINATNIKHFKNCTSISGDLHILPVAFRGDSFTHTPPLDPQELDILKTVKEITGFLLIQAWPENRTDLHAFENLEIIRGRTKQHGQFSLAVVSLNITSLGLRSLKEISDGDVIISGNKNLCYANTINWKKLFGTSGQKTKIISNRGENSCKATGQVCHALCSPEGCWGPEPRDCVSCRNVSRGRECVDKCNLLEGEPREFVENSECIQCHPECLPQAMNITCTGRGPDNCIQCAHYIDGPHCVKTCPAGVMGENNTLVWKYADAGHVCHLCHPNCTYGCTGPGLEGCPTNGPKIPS
T2 sequence (P01133 971-1023 partner): as the sequence (P01133 971-1023, further chain) above

`CC(C)(O)/C=C/C(=O)[C@](C)(O)[C@H]1[C@H](O)C[C@@]2(C)[C@@H]3CC=C4[C@@H](C[C@H](O)C(=O)C4(C)C)[C@]3(C)C(=O)C[C@]12C` [CuD, cucurbitacin D] gave an IC50 (ErbB3) of 331 nM, an IC50 (EGFR) of 4.33 nM and an IC50 (ErbB2) of 11.1 nM.
